Reference: US11607414B2, “Small molecule inhibitors of EGFR and PI3K” (The Regents of the University of Michigan, priority 2014, dated 2023)

What was measured:
EGFR = EGFR (Homo sapiens, UniProt P00533); test: Z'-LYTE biochemical kinase assay, EGFR; settings: read-out: potency against EGFR
Procedure: Various compounds were tested for their ability to inhibit EGFR and PIK3CA. The assays determining inhibitions are given in Example 2 Assays-Z′-LYTE® and ADAPTA.
Assays: The Z′-LYTE® biochemical assay employs a fluorescence-based, coupled-enzyme format and is based on the differential sensitivity of phosphorylated and non-phosphorylated peptides to proteolytic cleavage (FIG. 6). The peptide substrate is labeled with two fluorophores—one at each end— that make up a FRET pair. In the primary reaction, the kinase transfers the gamma-phosphate of ATP to a single tyrosine, serine or threonine residue in a synthetic FRET-peptide. […] A ratiometric method, which calculates the ratio (the Emission Ratio) of donor emission to acceptor emission after excitation of the donor fluorophore at 400 nm, is used to quantitate reaction progress.
A significant benefit of this ratiometric method for quantitating reaction progress is the elimination of well-to-well variations in FRET-peptide concentration and signal intensities. […]
Both cleaved and uncleaved FRET-peptides contribute to the fluorescence signals and therefore to the Emission Ratio. The extent of phosphorylation of the FRET-peptide can be calculated from the Emission Ratio. […]
Bar-coded Corning, low volume NBS, black 384-well plate (Corning Cat. 4514) 1. […] Read on fluorescence plate reader and analyze the data.

[1] = molecular target: panel of 39 kinases (tyrosine, serine/threonine and lipid kinases); test: Broad panel of 39 kinases at 10 μM; format: biochemical
Excerpt: Numerous hits were designed with nanomolar potency against EGFR and PIK3CA. […] A structure-activity relationship was shown for these agents against both of the biochemical targets.

[2] = test system: phosphorylation of EGFR in HCT-116 tumors; test: In vivo pharmacodynamics in subcutaneous HCT-116 tumors, pEGFR; settings: intraperitoneal 100 mg/kg
Excerpt: (§1) However, additional synthesis of MOL-162 is needed to allow a full pharmacodynamic time course study to be carried out to determine the maximal degree of target inhibition of both targets after single and repeated daily dosing.

[3] = test system: phosphorylation of AKT in HCT-116 tumors; test: In vivo pharmacodynamics in subcutaneous HCT-116 tumors, pAKT; settings: intraperitoneal 100 mg/kg
Excerpt: as §1

NCI-60 cell panel = test: NCI-60 COMPARE panel, one-dose % growth; format: cell-based, human; settings: 10 μM
Procedure: The method is outlined in Example 2—NCI COMPARE Panel.
The human tumor cell lines of the cancer screening panel are grown in RPMI 1640 medium containing 5% fetal bovine serum and 2 mM L-glutamine. For a typical screening experiment, cells are inoculated into 96 well microtiter plates in 100 μL at plating densities ranging from 5,000 to 40,000 cells/well depending on the doubling time of individual cell lines. After cell inoculation, the microtiter plates are incubated at 37° C., 5% CO2, 95% air and 100% relative humidity for 24 h prior to addition of experimental drugs. […]
Following drug addition, the plates are incubated for an additional 48 h at 37° C., 5% CO2, 95% air, and 100% relative humidity. […] Bound stain is subsequently solubilized with 10 mM trizma base, and the absorbance is read on an automated plate reader at a wavelength of 515 nm. […] Using the seven absorbance measurements [time zero, (Tz), control growth, (C), and test growth in the presence of drug at the five concentration levels (Ti)], the percentage growth is calculated at each of the drug concentrations levels. Percentage growth inhibition is calculated as: [(Ti−Tz)/(C−Tz)]×100 for concentrations for which Ti>/=Tz [(Ti−Tz)/Tz]×100 for concentrations for which Ti<Tz. […]

[4] = Tolerability in xenograft-bearing mice; format: in vivo; settings: oral, daily for 10 days at 20 and 100 mg/kg
Excerpt: (§2) FIGS. 8A, 8B, 8C, 8D, and 8E show in vivo efficacy of MOL-201 against, HCT-116, A431, COL-205, SK-MEL5 and MDA-MB-468 xenografts. […] The method is outlined in Example 2—Xenograft Studies.
(§3) Female 6-7 week old NCR nude mice (CrTac:NCr-Foxn1nu from Taconic), 6-7 weeks old, were implanted subcutaneously with 1×10^6 to 1×10^7 cells in a 1:1 serum-free media/Matrigel® mixture into the region of the right axilla. Mice were randomized into treatment groups and treatments initiated when tumors reached 100 to 200 mg. MTX-201 was administered daily for 10 days by oral gavage as a clear yellow solution in 5% DMSO/95% PEG300, based upon individual animal body weight (0.2 ml/20 g). Subcutaneous tumor volume and body weights were measured two to three times a week. Tumor volumes were calculated by measuring two perpendicular diameters with calipers and using the formula: tumor volume=(length×width2)/2. Mice were held following cessation of treatment until tumor burdens reached −1000 mg, to allow for calculation of tumor growth delay. Percent treated/control (% T/C) was calculated by dividing the median treated tumor weight by the median control tumor weight and multiplying by 100 on the last day of treatment. Tumor growth delay (T-C) was calculated by subtracting the median time to reach evaluation size (750 mg) of the treated group by the median time to evaluation size of the control group. […]

HCT-116 xenografts = test: Xenograft study, HCT-116; format: in vivo, NCR nude mice; settings: higher dose (100 mg/kg), daily for 10 days, oral
Excerpt: as §2, §3

A431 xenografts = test: Xenograft study, A431; format: in vivo, NCR nude mice; settings: higher dose (100 mg/kg), daily for 10 days, oral
Excerpt: as §2, §3

SK-MEL5 xenografts = test: Xenograft study, SK-MEL5; format: in vivo, NCR nude mice; settings: higher dose (100 mg/kg), daily for 10 days, oral
Excerpt: as §2, §3

COL-205 xenografts = test: Xenograft study, COL-205; format: in vivo, NCR nude mice; settings: higher dose (100 mg/kg), daily for 10 days, oral
Excerpt: as §2, §3

[5] = test system: HCT-116, A431, COL-205, SK-MEL5 and MDA-MB-468 xenografts; test: Xenograft studies, model not stated for the lower dose; format: in vivo, NCR nude mice; settings: lower dose of 20 mg/kg
Excerpt: as §2, §3

EGFR, sequence (P00533 25-1210): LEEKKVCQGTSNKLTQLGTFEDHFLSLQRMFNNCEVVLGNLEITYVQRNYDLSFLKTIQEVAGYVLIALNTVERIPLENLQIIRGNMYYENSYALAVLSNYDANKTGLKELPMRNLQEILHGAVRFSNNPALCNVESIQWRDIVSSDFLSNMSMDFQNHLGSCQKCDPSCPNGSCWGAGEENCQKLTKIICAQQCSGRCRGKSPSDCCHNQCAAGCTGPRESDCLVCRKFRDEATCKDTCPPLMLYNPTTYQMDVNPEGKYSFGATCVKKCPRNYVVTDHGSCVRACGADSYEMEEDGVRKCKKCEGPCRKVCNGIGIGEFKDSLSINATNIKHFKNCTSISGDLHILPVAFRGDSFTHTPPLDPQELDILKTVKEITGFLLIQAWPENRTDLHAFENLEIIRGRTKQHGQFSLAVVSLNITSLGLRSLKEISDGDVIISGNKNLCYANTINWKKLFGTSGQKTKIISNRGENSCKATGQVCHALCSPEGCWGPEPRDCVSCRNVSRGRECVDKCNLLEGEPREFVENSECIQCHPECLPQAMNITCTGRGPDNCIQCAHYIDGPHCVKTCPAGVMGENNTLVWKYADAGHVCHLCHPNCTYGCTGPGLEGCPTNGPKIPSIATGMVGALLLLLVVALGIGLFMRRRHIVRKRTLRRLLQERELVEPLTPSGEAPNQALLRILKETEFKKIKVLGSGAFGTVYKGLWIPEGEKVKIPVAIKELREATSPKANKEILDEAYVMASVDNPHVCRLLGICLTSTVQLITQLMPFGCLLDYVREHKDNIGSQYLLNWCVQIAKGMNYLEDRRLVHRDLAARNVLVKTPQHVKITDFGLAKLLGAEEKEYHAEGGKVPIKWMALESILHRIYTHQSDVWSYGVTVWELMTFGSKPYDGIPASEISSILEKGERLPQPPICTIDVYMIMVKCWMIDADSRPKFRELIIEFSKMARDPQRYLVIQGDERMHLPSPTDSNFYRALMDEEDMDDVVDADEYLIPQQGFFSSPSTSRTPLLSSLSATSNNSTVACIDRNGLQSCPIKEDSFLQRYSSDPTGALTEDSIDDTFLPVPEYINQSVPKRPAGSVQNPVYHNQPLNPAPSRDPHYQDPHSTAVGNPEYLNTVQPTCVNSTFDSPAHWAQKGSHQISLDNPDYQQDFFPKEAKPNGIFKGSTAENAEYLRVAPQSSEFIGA

IC50 (EGFR)	kinase profile (in words) [1]	Structure (SMILES)	inhibition of pEGFR in tumors [2]	inhibition of pAKT in tumors [3]	% growth in NCI-60 panel (in words) (NCI-60 cell panel)	tolerability [4]	anti-tumor activity (T/C and T-C) (HCT-116 xenografts)	anti-tumor activity (T/C and T-C) (A431 xenografts)	anti-tumor activity (T/C and T-C) (SK-MEL5 xenografts)	anti-tumor activity (T/C and T-C) (COL-205 xenografts)	anti-tumor activity [5]
349 nM	clean kinase profile	COc1ccc(Nc2ncnc3ccc(-c4cncc(NS(C)(=O)=O)c4)cc23)cc1Cl [MOL-153, N-(5-(4-((3-chloro-4-methoxyphenyl)amino)quinazolin-6-yl)pyridin-3-yl)methanesulfonamide]	not detected	inhibition of pAKT							
		CS(=O)(=O)Nc1cc(-c2ccc3ncnc(Nc4cccc(Cl)c4)c3c2)cnc1Cl [MOL-201, N-(2-chloro-5-(4-((3-chlorophenyl)amino)quinazolin-6-yl)pyridin-3-yl)methanesulfonamide]			broad cell kill	well tolerated by mice with no clinical observations of toxicity	Anti-tumor activity observed	Anti-tumor activity observed	Anti-tumor activity observed	Anti-tumor activity observed	elicited anti-tumor activity
